Key:
[1] = biological target: Poly [ADP-ribose] polymerase 1 (Homo sapiens, UniProt P09874); assay: PARP1 Enzymatic Activity Assay
Procedure: 2) After the coating was completed, the coating buffer was discarded. […] After washing, the blocking buffer was discarded. […] 4) 1000× compound was prepared. 1 μL of compound was transferred to a 96-well plate containing 199 μL of reaction buffer (50 mM Tris-HCl (pH 7.5), 0.005% Tween-20, 0.01% BSA) and mixed well. […] 5) 25/10×PARP1-DNA solution was prepared with reaction buffer. […] 6) 25/10×NAD+ solution was prepared with reaction buffer. […] 8) Primary antibody was 2000-fold diluted with the blocking buffer. 20 μL of primary antibody was added to the reaction plate, which was incubated at room temperature for 1.5 hours. 9) The primary antibody was discarded. […] 10) Secondary antibody was 2000-fold diluted with the blocking buffer. […] 11) The secondary antibody was discarded. […] The chemiluminescence value RLU was read with Envision.

[2] = biological target: Poly [ADP-ribose] polymerase 2 (Homo sapiens, UniProt Q9UGN5); assay: PARP2 Enzymatic Activity Assay
Poly [ADP-ribose] polymerase 2, sequence (Q9UGN5 whole entry): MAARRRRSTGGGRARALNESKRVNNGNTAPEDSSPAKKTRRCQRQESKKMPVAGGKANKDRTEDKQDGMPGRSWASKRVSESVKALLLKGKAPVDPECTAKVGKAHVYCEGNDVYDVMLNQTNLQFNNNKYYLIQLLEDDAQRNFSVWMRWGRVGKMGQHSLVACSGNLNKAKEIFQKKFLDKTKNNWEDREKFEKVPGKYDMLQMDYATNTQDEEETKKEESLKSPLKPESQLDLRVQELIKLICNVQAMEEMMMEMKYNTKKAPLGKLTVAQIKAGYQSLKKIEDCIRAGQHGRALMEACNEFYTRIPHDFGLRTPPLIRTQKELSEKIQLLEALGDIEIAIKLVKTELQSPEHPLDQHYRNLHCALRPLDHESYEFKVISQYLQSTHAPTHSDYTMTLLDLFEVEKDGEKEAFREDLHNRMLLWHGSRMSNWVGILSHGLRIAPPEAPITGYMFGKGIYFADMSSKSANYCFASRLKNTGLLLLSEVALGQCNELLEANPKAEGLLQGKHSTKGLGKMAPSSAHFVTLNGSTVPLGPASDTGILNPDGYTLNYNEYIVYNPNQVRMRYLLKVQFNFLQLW
Procedure: 2) After the coating was completed, the coating buffer was discarded. […] 6) 2000× compound was prepared. […] 10) The Stre-HRP solution was discarded.

Poly [ADP-ribose] polymerase 1, sequence (P09874 whole entry): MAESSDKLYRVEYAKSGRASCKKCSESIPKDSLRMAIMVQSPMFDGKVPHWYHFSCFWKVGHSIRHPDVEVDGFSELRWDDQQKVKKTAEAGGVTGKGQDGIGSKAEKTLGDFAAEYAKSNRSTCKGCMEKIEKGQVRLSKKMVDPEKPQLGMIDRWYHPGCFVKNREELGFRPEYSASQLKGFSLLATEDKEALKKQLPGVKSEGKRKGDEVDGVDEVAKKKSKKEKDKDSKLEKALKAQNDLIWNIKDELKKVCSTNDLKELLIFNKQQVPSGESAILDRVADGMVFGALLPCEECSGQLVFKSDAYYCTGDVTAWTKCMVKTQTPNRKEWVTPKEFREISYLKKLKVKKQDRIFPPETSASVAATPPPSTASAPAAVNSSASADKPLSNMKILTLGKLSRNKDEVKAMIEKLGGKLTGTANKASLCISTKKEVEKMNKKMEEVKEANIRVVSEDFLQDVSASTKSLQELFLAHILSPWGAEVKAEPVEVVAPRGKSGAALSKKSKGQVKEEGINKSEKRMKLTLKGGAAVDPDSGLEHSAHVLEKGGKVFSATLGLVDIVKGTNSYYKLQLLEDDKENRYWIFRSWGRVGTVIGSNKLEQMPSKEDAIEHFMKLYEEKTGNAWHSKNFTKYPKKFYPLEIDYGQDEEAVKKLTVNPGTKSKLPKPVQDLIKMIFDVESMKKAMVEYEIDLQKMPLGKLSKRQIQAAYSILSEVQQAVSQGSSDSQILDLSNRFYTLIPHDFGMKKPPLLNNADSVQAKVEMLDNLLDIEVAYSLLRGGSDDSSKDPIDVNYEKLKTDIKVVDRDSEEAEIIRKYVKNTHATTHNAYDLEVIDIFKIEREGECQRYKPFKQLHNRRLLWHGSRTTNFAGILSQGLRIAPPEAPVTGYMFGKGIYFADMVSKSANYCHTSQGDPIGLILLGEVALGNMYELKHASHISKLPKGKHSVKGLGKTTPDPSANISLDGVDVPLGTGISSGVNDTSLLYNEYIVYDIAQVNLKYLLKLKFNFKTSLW

| Compound | IC50 [1] | IC50 [2] |
| --- | --- | --- |
| CCc1cc2ncc(CN3CCN(c4ccc(C(=O)NC)nc4)C4CCC43)cc2[nH]c1=O (stereo unspecified) [US20250221987, Example 2] | 0.9 nM | 14 nM |
| CCc1cc2ncc(CN3CCN(c4ccc(C(=O)NC)nc4)[C@H]4CC[C@@H]43)cc2[nH]c1=O [US20250221987, Example 2-4] | 1 nM | 40 nM |
| CNC(=O)c1ccc(N2CCN(Cc3cnc4cc(OC)c(=O)[nH]c4c3)[C@H]3CC[C@H]32)cn1 [US20250221987, Example 33-1] | 6.6 nM | > 300 nM |
| CCc1cc2ncc(CN3CCN(c4ccc(C(=O)NC)nc4)[C@@H]4CC[C@H]43)cc2[nH]c1=O [US20250221987, Example 2-3] | 1.5 nM | 72 nM |
| CCc1cc2ncc(CN3CCN(c4ccc(C(=O)NC)nc4)[C@@H]4C[C@@H]43)cc2[nH]c1=O [US20250221987, Example 1-2] | 0.7 nM |  |
| CCc1cc2ncc(CN3CCN(c4ccc(C(=O)NC)nc4)C4CC43)cc2[nH]c1=O (stereo unspecified) [US20250221987, Example 1] | 1.1 nM |  |
| CCc1cc2ncc(CN3CCN(c4ccc(C(=O)NC)nc4)[C@H]4C[C@H]43)cc2[nH]c1=O [US20250221987, Example 1-1] | 0.9 nM |  |

Reference: BindingDB's records for patent US20250221987 (Acerand Therapeutics (Hong Kong), 2025)
